Measurements: patent publication US8772243B2, “Methods for predicting the response to anti-cancer treatment with an agonist of TLR7 or an agonist of TLR8” (Inserm (Institut National de la Sante et de la Recherche …, priority 2008, dated 2014)

How the values were obtained:
[1] = system: 1549, H1355 and SK-MES cells; assay: Chemoresistance by colony formation assay; type: cell-based, human; conditions: concentration added on day 12 of colony formation assay
Protocol: Alternatively, chemoresistance was assessed by the colony formation assay. In this assay, 1549, H1355 and SK-MES cells were seeded in 6-well plates (500 cells per well) and incubated for 15 days at 37° under 5% CO2. The cells were left unstimulated or stimulated 100 μM Loxoribine or with 10 μg/ml single-stranded polyU RNA (InvivoGen) on days 0, 3, 6 and 9. On day 12, different anti-cancer agents were added at the respective LD50 (cisplatin and carboplatin 100 μM, navelbine 50 μM, doxorubicine 2 nM). On day 15, the wells ware washed with PBS, and stained with 6% (vol/vol) glutaraldehyde, 0.5% (wt/vol) crystal violet in water for 30 minutes. The cells were washed and the colonies of more than 50 cells counted. Cell survival was calculated as follows: number of colonies after chemotherapy/number of cells seeded on day 0×plating efficiency, where the plating efficiency is number of colonies/number of cells seeded.

[2] = system: A549 cells; assay: Percentage of dead cells by Trypan blue exclusion; type: cell-based, human; conditions: 24 h
Protocol: (§1) FIG. 4 TLR7 and 8 induce survival of lung tumor cells. (A) A549 cells were unstimulated, stimulated with loxoribine (10 μg/ml), Poly U (10 μg/ml), or Gardiquimod(10μg/ml) and incubated with Alamar blue for 10 days. Reduction of Alamar blue was then determined by spectrophotometry at 570 and 600 nm. The percentage of reduced Alamar blue was calculated as described by the manufacturer. A549 cells were unstimulated or stimulated with loxoribine, Poly U, Gardiquimod, etoposide, or cycloheximide for 24 h. (B) The percentage of dead cells was determined by Trypan blue exclusion. (C) The DNA content was measured by IP staining after RNAse A treatment. The percentages indicate the proportion of subdiploid (G0/G1) and […]. Data represent mean values±SD from 3 independent experiments (*p<0.05; ** p<0.01, Student test). (D) A549 cells were cultured for 6 h in the presence of loxoribine, Poly U, or Gardiquimod, and the expression of Bcl-2 was assayed using Taq Man Low Density Array technology. The ΔCT values for Bcl-2 expression were calculated by subtraction of the CT value obtained for the 18S housekeeping gene. The ΔΔCT values were obtained by subtraction of ΔCT values for unstimulated cells from those obtained for stimulated cells. The fold increase (arbitrary unit) was obtained by 2^−ΔΔCT.

[3] = system: A549 cells; assay: Cell cycle analysis (propidium iodide staining); type: cell-based, human; conditions: PI staining
Protocol: as §1
A549 cells were cultured in the presence of loxoribine, Poly U, Gardiquimod, etoposide, or cycloheximide. After 48 h, the cells were harvested, washed in cold PBS, and fixed with 2 ml of 70% cold ethanol in PBS for 2 h at 4° C. After centrifugation, the supernatant was removed and the pellet was rinsed with 0.5% PBS Tween. It was then incubated with […] of RNAse A and 50 μg of propidium iodide in PBS. Propidium iodide staining was determined with a FACScalibur cytometer.

[4] = system: IκBα (NF-κB activation) in A549 cells; assay: Western blot of IκBα phosphorylation and degradation (NF-κB activation) in A549 cells; type: cell-based, human; conditions: TNF-α 10 ng/ml
Protocol: FIG. 3 TLR7 and TLR8 lead to IκBα phosphorylation, but not degradation. A549 cells were untreated or treated with TNF-α (10 ng/ml) (A, B), loxoribine (10 μg/ml) (C, D), or Poly U (10 μg/ml) (E, F) for the indicated periods of time. The cell lysates were analyzed by immunoblot with anti-phospho-specific IκBα, anti-IκBα and anti-actin antibodies (A, C, E). Quantification of the bands was realized using Image J software (B, D, F). Histograms represent the intensity of each band observed in the blots at the indicated time point and are expressed in arbitrary units normalized to actin intensity (relative intensity) both for phospho-IκBα and IκBα. Results are representative of three independent experiments.
A549 cells (1.10^6 cells) were starved for 4 hours in medium containing 2% FCS, and then stimulated with loxoribine, PolyU, or TNFα (10 ng/ml) for different periods of time as indicated. Cells were lysed in 50 mM Tris-HCl, pH 7.5, 150 mM NaCl, 2 mM EDTA, 0.5% triton X100, 2 mM Na3VO4, 10 mM NaF, and 10 mM sodium pyrophosphate supplemented with a complete protease inhibitor cocktail (Boehringer, Paris, France). Protein contents in the cell lysates were quantified using the quick start Bradford protein assay kit (Biorad, Marnes-La-Coquette, France) to ensure that all samples contained similar amounts of protein. Proteins (30 μg) were resolved in 10% Tris-glycine polyacrylamide gels (Invitrogen, Cergy Pontoise, France) and transferred to PVDF immobilon-P membranes (Millipore, Molsheim, France). Blots were probed with monoclonal antibody against phospho-IκBα (Cell Signaling Technology, Danvers, USA), total IκBα, and actin (Santa Cruz, Le Perray en Yvelines, France).
In order to determine if the TLR7 and 8 expressed by lung tumor cell lines were able to induce intracellular signaling pathways, we studied NF-κB activation in response to stimulation with TNFα, loxoribine (homodimeric TLR7 ligand), or Poly U (homodimeric TLR8 ligand). […] In contrast TLR7 or 8 stimulation led to atypical NF-κB activation. […] Furthermore, we also observed that the kinetics of IκBα phosphorylation were dependent on the stimulus. On the one hand, TNFα stimulation induced two waves of IκBα phosphorylation; the first one after ten minutes was associated with IκBα degradation, and the second one after sixty minutes was not associated with IκBα degradation. On the other hand, we observed that TLR stimulation induced only a phosphorylation of IκBα, with a maximum phosphorylation obtained after thirty minutes without degradation of IκBα.

[5] = system: A549 cells; assay: Tumor cell proliferation assay (Alamar blue reduction); type: cell-based, human; conditions: 10 μg/ml, ten days
Protocol: as §1
Human lung cancer cell lines were seeded in 96-well plates (800 cells per well) and left unstimulated or were stimulated with loxoribine, Poly U, or Gardiquimod. The proliferation assay was performed with Alamar blue (AbD Serotec, Cergy Pontoise, France) according to the manufacturer's instructions. Briefly, cells were seeded and stimulated with TLR ligands in 100 μl of medium, and 10 μl of Alamar Blue was added. The optical density in each well was determined at 540 nm and 570 nm after 10 days of culture, and the percentage of reduced Alamar blue was determined. The percentage of reduced Alamar blue in unstimulated cells was determined as 100%, and the percentages of the stimulated cells were determined relative to this value.

[6] = system: Bcl-2 expression in A549 cells; assay: Bcl-2 expression, Taq Man Low Density Array, A549; type: cell-based, human; conditions: 6 h, RT-PCR
Protocol: as §1, with “The fold increase (arbitrary unit) was obtained by 2^−ΔΔCT.” left out
Total RNA was extracted from A549 or SK-MES cells stimulated with loxoribine, Poly U, or Gardiquimod for 6 h or from purified human lung cancer cells using the RNeasy isolation-kit RNA (Qiagen, Courtaboeuf, France). The integrity and the quantity of the RNA were evaluated with a bioanalyzer-2100 (Agilent Technologies). All samples were assessed for gene expression analysis using the Taq Man Low-Density Array angiogenesis and immune panel (Applied Biosystem). […] Quantitative real-time TaqMan-PCR was performed using Low-Density-Arrays and the 7900 robotic real-time PCR-system (Applied-Biosystems). […] Data were analyzed using the SDS Software v2.2 (Applied-Biosystems). The ΔCT values were calculated for each gene by subtraction of the CT value of the 18S housekeeping gene from the CT of the gene of interest. […]

[7] = system: Bcl-2 expression in SCC SK-MES cells; assay: Bcl-2 expression, SK-MES; type: cell-based, human; conditions: data not shown
Protocol: (§2) Total RNA was extracted from A549 or SK-MES cells stimulated with loxoribine, Poly U, or Gardiquimod for 6 h or from purified human lung cancer cells using the RNeasy isolation-kit RNA (Qiagen, Courtaboeuf, France). The integrity and the quantity of the RNA were evaluated with a bioanalyzer-2100 (Agilent Technologies). All samples were assessed for gene expression analysis using the Taq Man Low-Density Array angiogenesis and immune panel (Applied Biosystem). The RT-PCR experiments were carried-out according to the manufacturer's instructions (Applied-Biosystems). Quantitative real-time TaqMan-PCR was performed using Low-Density-Arrays and the 7900 robotic real-time PCR-system (Applied-Biosystems). The 18S primers and probes were used as internal controls. Data were analyzed using the SDS Software v2.2 (Applied-Biosystems). The ΔCT values were calculated for each gene by subtraction of the CT value of the 18S housekeeping gene from the CT of the gene of interest. The ΔΔCT values were obtained by subtraction of the ΔCT values for unstimulated cells from the […]. The fold increase (arbitrary unit) was obtained by 2^−ΔΔCT.

[8] = system: A549 and SK-MES cells; assay: Transcriptomic analysis of 182 genes (Taq Man Low Density Array); type: cell-based, human; conditions: 6 h stimulation; versus unstimulated cells
Protocol: FIG. 6 TLR7 and 8 induce regulation of gene transcription. A549 or SK-MES cells were cultured for 6 h in the presence of loxoribine, Poly U, or Gardiquimod. Total RNA was extracted and analyzed for the expression of 182 genes using Taq Man Low Density Array technology. All genes with a value greater than 35 (CT) were excluded from the analysis. The ΔCT values for the expression of all genes were calculated by subtraction of the CT value of the 18S housekeeping gene. The ΔΔCT values were obtained by subtraction of the ΔCT values for unstimulated cells from those obtained for TLR7- or 8-stimulated cells. The fold increase (arbitrary unit) was obtained by 2^−ΔΔCT. Values were then clustered using the Genesis Software.
as §2

[9] = system: A549 and SK-MES cells; assay: Chemoresistance assay (Trypan blue and Alamar blue); type: cell-based, human; conditions: Alamar blue reduction
Protocol: FIG. 5 TLR7 and 8 induce chemoresistance of lung tumor cells. A549 (A-C) or SK-MES cells (D-F) were cultured with or without loxoribine or Poly U for 48 h, and then left untreated or were treated with cycloheximide, cisplatine, carboplatine, doxorubicine, or Navelbine. After 36 h, the percentage of dead cells was determined by Trypan blue exclusion (A, D) and cell viability was analyzed by the reduction of Alamar blue (B, C, E and F). Data represent mean values±SD from 3 independent experiments (*p<0.05; **p<0.01, ***p<0.001, Student test).
A549 and SK-MES cells were seeded in 96-well plates (1000 cells per well) and left unstimulated or were stimulated with loxoribine, Poly U, or Gardiquimod for 48 h. Cisplatine, carboplatine, doxorubicine, Navelbine, or cycloheximide was then added for an additional 36 h. The optical density in each well was determined 24 h after the addition of Alamar blue at 540 nm and 570 nm. Alternatively, viable and dead cells were counted using Trypan blue.

[10] = system: A549 cells; assay: A549 xenograft in NOD/SCID mice; type: in vivo; conditions: for factor of reduction of tumor size by chemotherapy: cisplatine 2 mg/kg/injection i.p.
Protocol: Mice were anesthetized by intra-peritoneal injection of a solution containing 3.2 mg of ketamine (Virbac) and 0.16 mg of xylasine (Rompum 2%, Bayer Healthcare) in 80 μl of PBS (Gibco). Five days prior to experimentation, A549 cells were pre-stimulated with 100 μM Loxoribine (Invivogen) or left unstimulated. For each condition 5×10^6 cells were diluted in 250 μl PBS and injected subcutaneously to 5 mice per group and were re-stimulated either with 50 μl PBS or with 100 nmol of Loxoribine diluted in 50 μl PBS. Stimulating injections into the tumor site were carried out on the day the cells were injected and then on days 3, 6 and 9. The mice then received either 120 μA PBS, or a chemotherapy of cisplatine (2 mg/kg/injection diluted in 120 μl PBS) on days 18, 20 and 22, both intra-peritoneal. The volume of the tumor was determined by measuring the length (Lg), the width (Wi) of the tumor and by calculating (Lg*(Wi*Wi)/2.

CCC1=C[C@@H]2CN(C1)Cc1c([nH]c3ccccc13)[C@@](C(=O)OC)(c1cc3c(cc1OC)N(C)[C@H]1[C@@](O)(C(=O)OC)[C@H](OC(C)=O)[C@]4(CC)C=CCN5CC[C@]31[C@@H]54)C2 [Navelbine]
LD50 [1]: 50 µM

C[C@@H]1C[C@@H]([C@H](O)CC2CC(=O)NC(=O)C2)C(=O)[C@@H](C)C1 [cycloheximide]
increase in the percentage of dead cells (positive controls) [2]: 2.5 fold | proportion of cells in G0/G1 or G2/M phases versus unstimulated cells [3]: significant reduction in the percentage of cells in G0/G1 or G2/M

TNFα
first wave of IκBα phosphorylation, associated with IκBα degradation [4]: ten | second wave of IκBα phosphorylation, not associated with IκBα degradation [4]: sixty | IκBα degradation / type of NF-κB activation ([4]; loxoribine or Poly U 10 μg/ml): IκBα phosphorylation and degradation

CCNCc1nc2c(N)nc3ccccc3c2n1CC(C)(C)O [Gardiquimod]
increase in reduction of Alamar blue versus unstimulated cells [5]: 20% | proportion of cells in G0/G1 or G2/M phases versus unstimulated cells [3]: did not observe any significant differences | Bcl-2 expression compared to untreated cells [6]: increased expression of Bcl-2 | increase in Bcl-2 expression [7]: 100 fold | genes down-regulated in both SK-MES and A549 cells [8]: Prolactin (PRL), CD80, Fibronectin-1 (FN-1), A Disintegrin And Metalloproteinase with ThromboSpondin motif 1 (ADAMTS1), and Serpin Peptidase Inhibitor Clade C1 (SERPINC1) | genes up-regulated in A549 cells, but down-regulated in SK-MES cells [8]: Angiopoietin like 3 (ANGPTL3), Serpin Peptidase Inhibitor Clade F1 (SERPINF1), and Angiopoietin 1 (ANGPT1) | genes up-regulated in SK-MES, but down-regulated in A549 cells [8]: ANGPTL1, Platelet Factor 4 (PF4), and fms related tyrosine kinase 4 (FLT4) | genes up-regulated in both SK-MES and A549 cells [8]: Bcl-2, CCR4, and Vasohibin-1 (VASH-1)

COc1cccc2c1C(=O)c1c(O)c3c(c(O)c1C2=O)C[C@@](O)(C(=O)CO)C[C@@H]3O[C@H]1C[C@H](N)[C@H](O)[C@H](C)O1 [doxorubicine]
LD50 [1]: 0.002 µM

COc1cc([C@@H]2c3cc4c(cc3[C@@H](O[C@@H]3O[C@@H]5CO[C@@H](C)O[C@H]5[C@H](O)[C@H]3O)[C@H]3COC(=O)[C@H]23)OCO4)cc(OC)c1O [etoposide]
increase in the percentage of dead cells (positive controls) [2]: 2.5 fold | proportion of cells in G0/G1 or G2/M phases versus unstimulated cells [3]: significant reduction in the percentage of cells in G0/G1 or G2/M

[NH2][Pt]([NH2])([Cl])[Cl] [cisplatine]
reduction in cell viability by chemotherapy, comparison of drugs [9]: more potent inducers of cell death | LD50 [1]: 100 µM | factor of reduction of tumor size by chemotherapy ([10]; Loxoribine-stimulated group): 1.6 factor | factor of reduction of tumor size by chemotherapy ([10]; NS group): 3 factor | tumor volume seven weeks after injection of tumor cells ([10]; NS group, cisplatine 2 mg/kg/injection i.p. days 18, 20, 22): 0.6 cm^3

[NH2][Pt]1([NH2])[O]C(=O)C2(CCC2)C(=O)[O]1 [carboplatine]
reduction in cell viability by chemotherapy, comparison of drugs [9]: more potent inducers of cell death | LD50 [1]: 100 µM
